# From ChEMBL document CHEMBL5113489, “Design, synthesis, and biological evaluation of membrane-active honokiol derivatives as potent antibacterial agents” (Eur J Med Chem, 2022)
# Columns and labels:
# Staphylococcus aureus [1] = test: Antibacterial activity against Staphylococcus aureus ATCC 25923; type: functional
# Staphylococcus aureus [2] = test: Antibacterial activity against Staphylococcus aureus ATCC 31007; type: functional
# Staphylococcus aureus [3] = test: Antibacterial activity against Staphylococcus aureus ATCC 43300; type: functional
# Bacillus subtilis = test: Antibacterial activity against Bacillus subtilis ATCC 9372; type: functional
# Escherichia coli [4] = test: Antibacterial activity against Escherichia coli ATCC 25922; type: functional
# Pseudomonas aeruginosa = test: Antibacterial activity against Pseudomonas aeruginosa ATCC 27853; type: functional
# [5] = Hemolytic activity in sheep RBC; type: toxicity, cell-based, Ovis aries, Erythrocyte; conditions: sheep red blood cells (erythrocytes)
# [6] = Selectivity index, ratio of HC50 for hemolytic activity in sheep RBC to MIC for antibacterial activity against Staphylococcus aureus ATCC 43300; type: toxicity; conditions: sheep red blood cells (erythrocytes)
# Staphylococcus aureus [7] = test: Antibacterial activity against Staphylococcus aureus ATCC 43300 assessed as resistance development by measuring fold increase in MIC; type: functional
# Escherichia coli [8] = test: Antibacterial activity against Escherichia coli ATCC 25922 assessed as resistance development by measuring fold increase in MIC; type: functional
# Staphylococcus aureus [9] = test: In vivo antibacterial activity against Staphylococcus aureus ATCC 43300 in septicemia mouse model assessed as log reduction in bacterial load in liver at 5 mg/kg, administered every 12 hrs for 3 days; type: functional
# Staphylococcus aureus [10] = test: In vivo antibacterial activity against Staphylococcus aureus ATCC 43300 in septicemia mouse model assessed as log reduction in bacterial load in spleen at 5 mg/kg, administered every 12 hrs for 3 days; type: functional
# Staphylococcus aureus [11] = test: In vivo antibacterial activity against Staphylococcus aureus ATCC 43300 in septicemia mouse model assessed as log reduction in bacterial load in kidney at 5 mg/kg, administered every 12 hrs for 3 days; type: functional
MIC (Staphylococcus aureus [1]),MIC (Staphylococcus aureus [2]),MIC (Staphylococcus aureus [3]),MIC (Bacillus subtilis),MIC (Escherichia coli [4]),MIC (Pseudomonas aeruginosa),Compound,HC50 [5],selectivity ratio [6],fold change (FC) (Staphylococcus aureus [7]),fold change (FC) (Escherichia coli [8]),log(activity) (Staphylococcus aureus [9]),log(activity) (Staphylococcus aureus [10]),log(activity) (Staphylococcus aureus [11])
8 µg/mL,8 µg/mL,4 µg/mL,32 µg/mL,32 µg/mL,128 µg/mL,C=CCc1ccc(OCC(=O)NCCC[N+](C)(C)CCCCCCCCCCCC)c(-c2ccc(OCC(=O)NCCC[N+](C)(C)CCCCCCCCCCCC)c(CC=C)c2)c1.[Br-].[Br-],–,–,–,–,–,–,–
8 µg/mL,8 µg/mL,8 µg/mL,8 µg/mL,16 µg/mL,16 µg/mL,C=CCc1ccc(OCC(=O)NC(CCCCN)C(=O)NCCCCCC)c(-c2ccc(OCC(=O)NC(CCCCN)C(=O)NCCCCCC)c(CC=C)c2)c1.O=C(O)C(F)(F)F.O=C(O)C(F)(F)F (stereo not given),502 µg/mL,62.7,–,–,–,–,–
2 µg/mL,2 µg/mL,2 µg/mL,1 µg/mL,8 µg/mL,16 µg/mL,C=CCc1ccc(OCCC[N+](C)(C)CCCCCCCC)c(-c2ccc(OCCC[N+](C)(C)CCCCCCCC)c(CC=C)c2)c1.[Br-].[Br-],36 µg/mL,18,–,–,–,–,–
2 µg/mL,4 µg/mL,2 µg/mL,4 µg/mL,8 µg/mL,16 µg/mL,C=CCc1ccc(OCC(=O)NCCC[N+](C)(C)CCCCCCCC)c(-c2ccc(OCC(=O)NCCC[N+](C)(C)CCCCCCCC)c(CC=C)c2)c1.[Br-].[Br-],123 µg/mL,61.5,–,–,–,–,–
16 µg/mL,128 µg/mL,> 128 µg/mL,> 128 µg/mL,> 128 µg/mL,> 128 µg/mL,C=CCc1ccc(OCCC[N+](C)(C)CCCCCCCCCCCCCC)c(-c2ccc(OCCC[N+](C)(C)CCCCCCCCCCCCCC)c(CC=C)c2)c1.[Br-].[Br-],–,–,–,–,–,–,–
64 µg/mL,64 µg/mL,128 µg/mL,32 µg/mL,> 128 µg/mL,> 128 µg/mL,C=CCc1ccc(O)c(-c2ccc(O)c(CC=C)c2)c1 [HONOKIOL],–,–,–,–,–,–,–
4 µg/mL,8 µg/mL,4 µg/mL,4 µg/mL,16 µg/mL,128 µg/mL,C=CCc1ccc(OCCC[N+](C)(C)CCCC)c(-c2ccc(OCCC[N+](C)(C)CCCC)c(CC=C)c2)c1.[Br-].[Br-],1180 µg/mL,295,–,–,–,–,–
32 µg/mL,64 µg/mL,32 µg/mL,128 µg/mL,128 µg/mL,64 µg/mL,C=CCc1ccc(OCC(=O)NCCCCN)c(-c2ccc(OCC(=O)NCCCCN)c(CC=C)c2)c1.O=C(O)C(F)(F)F.O=C(O)C(F)(F)F,–,–,–,–,–,–,–
8 µg/mL,4 µg/mL,4 µg/mL,4 µg/mL,> 128 µg/mL,> 128 µg/mL,C=CCc1ccc(OCC(=O)NC(CCCCN)C(=O)NCC23CC4CC(CC(C4)C2)C3)c(-c2ccc(OCC(=O)NC(CCCCN)C(=O)NCC34CC5CC(CC(C5)C3)C4)c(CC=C)c2)c1.O=C(O)C(F)(F)F.O=C(O)C(F)(F)F (stereo not given),1280 µg/mL,> 320,–,–,–,–,–
–,–,–,–,–,–,CCn1cc(C(=O)O)c(=O)c2cc(F)c(N3CCNCC3)cc21 [NORFLOXACIN],–,–,256,–,–,–,–
8 µg/mL,16 µg/mL,16 µg/mL,16 µg/mL,16 µg/mL,128 µg/mL,C=CCc1ccc(OCC(=O)NCCC[N+](C)(C)CCCCCC)c(-c2ccc(OCC(=O)NCCC[N+](C)(C)CCCCCC)c(CC=C)c2)c1.[Br-].[Br-],183 µg/mL,11.4,–,–,–,–,–
16 µg/mL,32 µg/mL,4 µg/mL,2 µg/mL,> 128 µg/mL,> 128 µg/mL,C=CCc1ccc(OCCC[N+](C)(C)CCCCCCCCCC)c(-c2ccc(OCCC[N+](C)(C)CCCCCCCCCC)c(CC=C)c2)c1.[Br-].[Br-],–,–,–,–,–,–,–
64 µg/mL,128 µg/mL,> 128 µg/mL,> 128 µg/mL,16 µg/mL,> 128 µg/mL,C=CCc1ccc(OCC(=O)NCCC[N+](C)(C)C)c(-c2ccc(OCC(=O)NCCC[N+](C)(C)C)c(CC=C)c2)c1.[I-].[I-],–,–,–,–,–,–,–
128 µg/mL,128 µg/mL,> 128 µg/mL,> 128 µg/mL,> 128 µg/mL,> 128 µg/mL,C=CCc1ccc(OCCC[N+](C)(C)CCCCCCCCCCCC)c(-c2ccc(OCCC[N+](C)(C)CCCCCCCCCCCC)c(CC=C)c2)c1.[Br-].[Br-],–,–,–,–,–,–,–
128 µg/mL,64 µg/mL,64 µg/mL,> 128 µg/mL,> 128 µg/mL,> 128 µg/mL,C=CCc1ccc(OCC(=O)NC(CCCCN)C(=O)NCCCCCCCCCCCC)c(-c2ccc(OCC(=O)NC(CCCCN)C(=O)NCCCCCCCCCCCC)c(CC=C)c2)c1.O=C(O)C(F)(F)F.O=C(O)C(F)(F)F (stereo not given),–,–,–,–,–,–,–
8 µg/mL,16 µg/mL,4 µg/mL,4 µg/mL,128 µg/mL,> 128 µg/mL,C=CCc1ccc(OCC(=O)NC(CCCCN)C(=O)NCc2ccc(C(C)(C)C)cc2)c(-c2ccc(OCC(=O)NC(CCCCN)C(=O)NCc3ccc(C(C)(C)C)cc3)c(CC=C)c2)c1.O=C(O)C(F)(F)F.O=C(O)C(F)(F)F (stereo not given),–,–,–,–,–,–,–
16 µg/mL,16 µg/mL,8 µg/mL,8 µg/mL,64 µg/mL,128 µg/mL,C=CCc1ccc(OCC(=O)NC(CCCCN)C(=O)NCCCCCCCC)c(-c2ccc(OCC(=O)NC(CCCCN)C(=O)NCCCCCCCC)c(CC=C)c2)c1.O=C(O)C(F)(F)F.O=C(O)C(F)(F)F (stereo not given),–,–,–,–,–,–,–
8 µg/mL,16 µg/mL,8 µg/mL,32 µg/mL,16 µg/mL,64 µg/mL,C=CCc1ccc(OCCN)c(-c2ccc(OCCN)c(CC=C)c2)c1.Cl.Cl,694 µg/mL,86.7,–,–,–,–,–
32 µg/mL,32 µg/mL,32 µg/mL,128 µg/mL,64 µg/mL,128 µg/mL,C=CCc1ccc(OCC(=O)NCCN)c(-c2ccc(OCC(=O)NCCN)c(CC=C)c2)c1.O=C(O)C(F)(F)F.O=C(O)C(F)(F)F,–,–,–,–,–,–,–
32 µg/mL,32 µg/mL,16 µg/mL,8 µg/mL,> 128 µg/mL,> 128 µg/mL,C=CCc1ccc(OCC(=O)NC(CCCCN)C(=O)NCc2ccc(-c3ccccc3)cc2)c(-c2ccc(OCC(=O)NC(CCCCN)C(=O)NCc3ccc(-c4ccccc4)cc3)c(CC=C)c2)c1.O=C(O)C(F)(F)F.O=C(O)C(F)(F)F (stereo not given),–,–,–,–,–,–,–
4 µg/mL,8 µg/mL,4 µg/mL,32 µg/mL,> 128 µg/mL,64 µg/mL,C=CCc1ccc(OCCCN)c(-c2ccc(OCCCN)c(CC=C)c2)c1.Cl.Cl,438 µg/mL,110,–,–,–,–,–
64 µg/mL,128 µg/mL,128 µg/mL,> 128 µg/mL,128 µg/mL,> 128 µg/mL,C=CCc1ccc(OCC(=O)NCCC[N+](C)(C)CCCC)c(-c2ccc(OCC(=O)NCCC[N+](C)(C)CCCC)c(CC=C)c2)c1.[Br-].[Br-],–,–,–,–,–,–,–
2 µg/mL,4 µg/mL,4 µg/mL,8 µg/mL,32 µg/mL,128 µg/mL,C=CCc1ccc(OCC(=O)NCCC[N+](C)(C)CCCCCCCCCC)c(-c2ccc(OCC(=O)NCCC[N+](C)(C)CCCCCCCCCC)c(CC=C)c2)c1.[Br-].[Br-],53 µg/mL,13.2,–,–,–,–,–
128 µg/mL,128 µg/mL,> 128 µg/mL,> 128 µg/mL,> 128 µg/mL,> 128 µg/mL,C=CCc1ccc(OCC(=O)NCCCN(C)C)c(-c2ccc(OCC(=O)NCCCN(C)C)c(CC=C)c2)c1,–,–,–,–,–,–,–
–,–,–,–,–,–,O=C(O)c1cn(C2CC2)c2cc(N3CCNCC3)c(F)cc2c1=O [CIPROFLOXACIN],–,–,–,–,2.01,1.52,1.56
4 µg/mL,8 µg/mL,4 µg/mL,4 µg/mL,16 µg/mL,16 µg/mL,C=CCc1ccc(OCC(=O)NC(CCCCN)C(=O)NCCCCCCCCCC)c(-c2ccc(OCC(=O)NC(CCCCN)C(=O)NCCCCCCCCCC)c(CC=C)c2)c1.O=C(O)C(F)(F)F.O=C(O)C(F)(F)F (stereo not given),> 1280 µg/mL,> 320,–,–,–,–,–
32 µg/mL,64 µg/mL,64 µg/mL,> 128 µg/mL,128 µg/mL,64 µg/mL,C=CCc1ccc(OCC(=O)NCCCN)c(-c2ccc(OCC(=O)NCCCN)c(CC=C)c2)c1.O=C(O)C(F)(F)F.O=C(O)C(F)(F)F,–,–,–,–,–,–,–
16 µg/mL,32 µg/mL,16 µg/mL,8 µg/mL,32 µg/mL,32 µg/mL,C=CCc1ccc(OCC(=O)NC(CCCCN)C(=O)NCCCC)c(-c2ccc(OCC(=O)NC(CCCCN)C(=O)NCCCC)c(CC=C)c2)c1.O=C(O)C(F)(F)F.O=C(O)C(F)(F)F (stereo not given),–,–,–,–,–,–,–

Compound,MIC (Staphylococcus aureus [1]),MIC (Staphylococcus aureus [2]),MIC (Staphylococcus aureus [3]),MIC (Bacillus subtilis),MIC (Escherichia coli [4]),MIC (Pseudomonas aeruginosa),HC50 [5],selectivity ratio [6],fold change (FC) (Staphylococcus aureus [7]),fold change (FC) (Escherichia coli [8]),log(activity) (Staphylococcus aureus [9]),log(activity) (Staphylococcus aureus [10]),log(activity) (Staphylococcus aureus [11])
CN[C@H](CC(C)C)C(=O)N[C@H]1C(=O)N[C@@H](CC(N)=O)C(=O)N[C@H]2C(=O)N[C@H]3C(=O)N[C@H](C(=O)N[C@H](C(=O)O)c4cc(O)cc(O)c4-c4cc3ccc4O)[C@H](O)c3ccc(c(Cl)c3)Oc3cc2cc(c3O[C@@H]2O[C@H](CO)[C@@H](O)[C@H](O)[C@H]2O[C@H]2C[C@](C)(N)[C@H](O)[C@H](C)O2)Oc2ccc(cc2Cl)[C@H]1O [VANCOMYCIN],–,–,–,0.5 µg/mL,> 128 µg/mL,> 128 µg/mL,–,–,–,–,–,–,–
COLISTIN,64 µg/mL,128 µg/mL,64 µg/mL,8 µg/mL,2 µg/mL,1 µg/mL,–,–,–,64,–,–,–
